Consider 15 compounds from PubChem BioAssay (NCI).

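Assay format: 96-well plates, 48-hour exposure. At the TGI there is no net growth.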

One assay concerns HOP-62 NSCLC. The assay can be described thus: inhibition of tumour cell growth, NCI panel, 48 h.
With `O=C(/C=C/c1csc(-c2ccccc2)n1)NCc1ccc(C(=O)NCCc2ccccc2)cc1`, the TGI turned out to be 6.86 µM.

As for `CC12CCC(CC1=O)C2(C)CCC(N)=O` (configuration not stated), the TGI was above 100 µM.

In the case of `[N-]=[N+]=Nc1c(C=O)c(=O)n2c3c(cccc13)CCC2`, the TGI came to 35.2 µM.

Compound `CC(C)(Br)C(Br)CCC(C)(Br)C(Br)CO` (configuration not stated) came in with a TGI above 10 µM.

In the case of `COc1ccc(/C=C2\C(=O)N(C3OC(COC(C)=O)C(OC(C)=O)C(OC(C)=O)C3OC(C)=O)c3ccccc3N=C2N)cc1` (configuration not stated), the TGI is above 100 µM.

The compound `COC12OC3(C4OC41)C(C(=O)O[C@H]3CO[Si](C)(C)C(C)(C)C)C2C(=O)Oc1ccccc1` (some centres not stated) came in with a TGI above 100 µM.

The compound `COc1ccc(OCc2nc3cc(C(F)(F)F)ccc3nc2-c2ccccc2)cc1` had a TGI above 100 µM.

`N=c1oc2cc(O)ccc2cc1C(=O)NCc1ccccc1` registered a TGI above 100 µM.

In turn, `COc1cc(/C=C/C(=O)c2ccc(NS(=O)(=O)c3cc([N+](=O)[O-])ccc3C)cc2)cc(OC)c1OC` returned a TGI of 11.4 µM.

Consider `O=C(Cc1ccccc1)NNc1nc(NNC(=O)c2ccncc2)nc(Nc2ccc([N+](=O)[O-])cc2)n1`, for which the TGI was above 10 µM.

In turn, `NC(=O)N/N=C1\CCCCc2ccccc21` returned a TGI above 10 µM.

For the compound `CSc1ncc2c(C#N)c3sc4ccccc4n3c(=O)c2n1`, the TGI is above 100 µM.

A further assay deals with HOP-92 NSCLC. Kind of assay: inhibition of tumour cell growth, NCI panel, 48 h.
`COc1ccc2c(C)cc(N/N=C(\C)C=O)nc2c1` returned a TGI of 25.1 µM.

The compound `O=C(/C=C/c1csc(-c2ccccc2)n1)NCc1ccc(C(=O)NCCc2ccccc2)cc1` had a TGI of 36.8 µM.

`[N-]=[N+]=Nc1c(C=O)c(=O)n2c3c(cccc13)CCC2` registered a TGI of 4.5 µM.

`CC(C)(Br)C(Br)CCC(C)(Br)C(Br)CO` (configuration not stated): the TGI was above 10 µM.

The compound `COc1ccc(/C=C2\C(=O)N(C3OC(COC(C)=O)C(OC(C)=O)C(OC(C)=O)C3OC(C)=O)c3ccccc3N=C2N)cc1` (configuration not stated) returned a TGI above 100 µM.

`COC12OC3(C4OC41)C(C(=O)O[C@H]3CO[Si](C)(C)C(C)(C)C)C2C(=O)Oc1ccccc1` (some centres not stated) came in with a TGI above 100 µM.

Turning to `COc1ccc(OCc2nc3cc(C(F)(F)F)ccc3nc2-c2ccccc2)cc1`, the TGI was above 100 µM.

Compound `COc1cc(/C=C/C(=O)c2ccc(NS(=O)(=O)c3cc([N+](=O)[O-])ccc3C)cc2)cc(OC)c1OC` gave a TGI of 11.5 µM.

In turn, `O=C(Cc1ccccc1)NNc1nc(NNC(=O)c2ccncc2)nc(Nc2ccc([N+](=O)[O-])cc2)n1` registered a TGI above 10 µM.

In turn, `NC(=O)N/N=C1\CCCCc2ccccc21` came in with a TGI above 10 µM.

`CSc1ncc2c(C#N)c3sc4ccccc4n3c(=O)c2n1`: the TGI is above 100 µM.

`CCOC(=O)c1ccc(N=C2C(=S)N(c3ccc(C(=O)OCC)cc3)C(=N)N2/N=C/c2ccccc2)cc1`: the TGI was 36.2 µM.

For the next assay, the system named is K-562 leukemia. Kind of assay: inhibition of tumour cell growth, NCI panel, 48 h.
Turning to `COc1ccc2c(C)cc(N/N=C(\C)C=O)nc2c1`, the TGI worked out at 5.05 µM.

In turn, `O=C(/C=C/c1csc(-c2ccccc2)n1)NCc1ccc(C(=O)NCCc2ccccc2)cc1` showed a TGI above 100 µM.

`CC12CCC(CC1=O)C2(C)CCC(N)=O` (configuration not stated) showed a TGI above 100 µM.

In turn, `[N-]=[N+]=Nc1c(C=O)c(=O)n2c3c(cccc13)CCC2` had a TGI of 13 µM.

`CC(C)(Br)C(Br)CCC(C)(Br)C(Br)CO` (configuration not stated) displayed a TGI above 10 µM.

In the case of `COc1ccc(/C=C2\C(=O)N(C3OC(COC(C)=O)C(OC(C)=O)C(OC(C)=O)C3OC(C)=O)c3ccccc3N=C2N)cc1` (configuration not stated), the TGI turned out to be 38.1 µM.

In turn, `COC12OC3(C4OC41)C(C(=O)O[C@H]3CO[Si](C)(C)C(C)(C)C)C2C(=O)Oc1ccccc1` (some centres not stated) registered a TGI above 100 µM.

As for `COc1ccc(OCc2nc3cc(C(F)(F)F)ccc3nc2-c2ccccc2)cc1`, the TGI is above 100 µM.

`N=c1oc2cc(O)ccc2cc1C(=O)NCc1ccccc1` displayed a TGI of 28.2 µM.

For the compound `COc1cc(/C=C/C(=O)c2ccc(NS(=O)(=O)c3cc([N+](=O)[O-])ccc3C)cc2)cc(OC)c1OC`, the TGI was found to be 10.9 µM.

Turning to `O=C(Cc1ccccc1)NNc1nc(NNC(=O)c2ccncc2)nc(Nc2ccc([N+](=O)[O-])cc2)n1`, the TGI was above 10 µM.

`NC(=O)N/N=C1\CCCCc2ccccc21` had a TGI above 10 µM.

The compound `CSc1ncc2c(C#N)c3sc4ccccc4n3c(=O)c2n1` had a TGI above 100 µM.

Compound `CCOC(=O)c1ccc(N=C2C(=S)N(c3ccc(C(=O)OCC)cc3)C(=N)N2/N=C/c2ccccc2)cc1` registered a TGI above 100 µM.

The subject of the next assay is LOX IMVI melanoma. Kind of assay: inhibition of tumour cell growth, NCI panel, 48 h.
`COc1ccc2c(C)cc(N/N=C(\C)C=O)nc2c1` came in with a TGI of 24 µM.

For the compound `O=C(c1cccc2ccccc12)C1(Br)S(=O)(=O)OCCOS1(=O)=O`, the TGI was above 100 µM.

`O=C(/C=C/c1csc(-c2ccccc2)n1)NCc1ccc(C(=O)NCCc2ccccc2)cc1` displayed a TGI above 100 µM.

Consider `[N-]=[N+]=Nc1c(C=O)c(=O)n2c3c(cccc13)CCC2`, for which the TGI was 25.4 µM.

On to `COc1ccc(/C=C2\C(=O)N(C3OC(COC(C)=O)C(OC(C)=O)C(OC(C)=O)C3OC(C)=O)c3ccccc3N=C2N)cc1` (configuration not stated), for which the TGI was 89.4 µM.

Regarding `COC12OC3(C4OC41)C(C(=O)O[C@H]3CO[Si](C)(C)C(C)(C)C)C2C(=O)Oc1ccccc1` (some centres not stated), the TGI is above 100 µM.

`COc1ccc(OCc2nc3cc(C(F)(F)F)ccc3nc2-c2ccccc2)cc1` registered a TGI above 100 µM.

For `N=c1oc2cc(O)ccc2cc1C(=O)NCc1ccccc1`, the TGI is above 100 µM.

In turn, `COc1cc(/C=C/C(=O)c2ccc(NS(=O)(=O)c3cc([N+](=O)[O-])ccc3C)cc2)cc(OC)c1OC` came in with a TGI of 9.36 µM.

For `O=C(Cc1ccccc1)NNc1nc(NNC(=O)c2ccncc2)nc(Nc2ccc([N+](=O)[O-])cc2)n1`, the TGI was above 10 µM.

`CSc1ncc2c(C#N)c3sc4ccccc4n3c(=O)c2n1`: the TGI was above 100 µM.

The next assay deals with M14 melanoma. Kind of assay: inhibition of tumour cell growth, NCI panel, 48 h.
Consider `COc1ccc2c(C)cc(N/N=C(\C)C=O)nc2c1`, for which the TGI is 35.2 µM.

In turn, `O=C(c1cccc2ccccc12)C1(Br)S(=O)(=O)OCCOS1(=O)=O` returned a TGI above 100 µM.

`O=C(/C=C/c1csc(-c2ccccc2)n1)NCc1ccc(C(=O)NCCc2ccccc2)cc1`: the TGI was above 100 µM.

As for `CC12CCC(CC1=O)C2(C)CCC(N)=O` (configuration not stated), the TGI is above 100 µM.

`[N-]=[N+]=Nc1c(C=O)c(=O)n2c3c(cccc13)CCC2` returned a TGI of 3.9 µM.

The compound `CC(C)(Br)C(Br)CCC(C)(Br)C(Br)CO` (configuration not stated) yielded a TGI above 10 µM.

Compound `COc1ccc(/C=C2\C(=O)N(C3OC(COC(C)=O)C(OC(C)=O)C(OC(C)=O)C3OC(C)=O)c3ccccc3N=C2N)cc1` (configuration not stated) gave a TGI of 71.8 µM.

As to `COC12OC3(C4OC41)C(C(=O)O[C@H]3CO[Si](C)(C)C(C)(C)C)C2C(=O)Oc1ccccc1` (some centres not stated), the TGI was above 100 µM.

For `COc1ccc(OCc2nc3cc(C(F)(F)F)ccc3nc2-c2ccccc2)cc1`, the TGI was above 100 µM.

For the compound `N=c1oc2cc(O)ccc2cc1C(=O)NCc1ccccc1`, the TGI is above 100 µM.

Compound `COc1cc(/C=C/C(=O)c2ccc(NS(=O)(=O)c3cc([N+](=O)[O-])ccc3C)cc2)cc(OC)c1OC` returned a TGI of 15.3 µM.

For the compound `O=C(Cc1ccccc1)NNc1nc(NNC(=O)c2ccncc2)nc(Nc2ccc([N+](=O)[O-])cc2)n1`, the TGI was above 10 µM.

In the case of `NC(=O)N/N=C1\CCCCc2ccccc21`, the TGI was above 10 µM.

`CSc1ncc2c(C#N)c3sc4ccccc4n3c(=O)c2n1` returned a TGI above 100 µM.

Compound `CCOC(=O)c1ccc(N=C2C(=S)N(c3ccc(C(=O)OCC)cc3)C(=N)N2/N=C/c2ccccc2)cc1` gave a TGI of 24.9 µM.

The test system of the next assay is MCF7 breast. The assay can be described thus: inhibition of tumour cell growth, NCI panel, 48 h.
For `COc1ccc2c(C)cc(N/N=C(\C)C=O)nc2c1`, the TGI was determined as 26 µM.

Compound `O=C(c1cccc2ccccc12)C1(Br)S(=O)(=O)OCCOS1(=O)=O` gave a TGI above 100 µM.

In turn, `O=C(/C=C/c1csc(-c2ccccc2)n1)NCc1ccc(C(=O)NCCc2ccccc2)cc1` came in with a TGI above 100 µM.
